Publication PMC7280082 (Acta Pharmaceutica Sinica. B, 2019)

Experiments:
[1] = test system: WT HIV-1 (IIIB); assay: microbe, parasite or virus in culture; format: cell-based; settings: for EC50: Human immunodeficiency virus 1, IIIB, MT4, read-out: EC50 IIIB; for SI IIIB: ratio of CC50/EC50
[2] = test system: HIV-2 strain (ROD); assay: Anti-HIV-2; format: cell-based; settings: for EC50: Human immunodeficiency virus 2, MT4, read-out: EC50 ROD; for SI ROD: ratio of CC50/EC50
[3] = test system: HIV-1 L100I mutant strain; assay: microbe, parasite or virus in culture; format: cell-based; settings: for SI L100I: CC50/EC50; for EC50: Human immunodeficiency virus 1, MT4, read-out: EC50 L100I; for RF L100I: ratio of EC50 (resistant viral strain)/EC50 (wild-type viral strain)
[4] = test system: HIV-1 K103N mutant strain; assay: microbe, parasite or virus in culture; format: cell-based; settings: for SI K103N: CC50/EC50; for EC50: Human immunodeficiency virus 1, MT4, read-out: EC50 K103N; for RF K103N: ratio of EC50 (resistant viral strain)/EC50 (wild-type viral strain)
[5] = test system: HIV-1 Y181C mutant strain; assay: microbe, parasite or virus in culture; format: cell-based; settings: for SI Y181C: CC50/EC50; for EC50: Human immunodeficiency virus 1, MT4, read-out: EC50 Y181C; for RF Y181C: ratio of EC50 (resistant viral strain)/EC50 (wild-type viral strain)
[6] = test system: HIV-1 Y188L mutant strain; assay: microbe, parasite or virus in culture; format: cell-based; settings: for SI Y188L: CC50/EC50; for EC50: Human immunodeficiency virus 1, MT4, read-out: EC50 Y188L; for RF Y188L: ratio of EC50 (resistant viral strain)/EC50 (wild-type viral strain)
[7] = test system: HIV-1 E138K mutant strain; assay: microbe, parasite or virus in culture; format: cell-based; settings: for SI E138K: CC50/EC50; for EC50: Human immunodeficiency virus 1, MT4, read-out: EC50 E138K; for RF E138K: ratio of EC50 (resistant viral strain)/EC50 (wild-type viral strain)
[8] = test system: HIV-1 F227L + V106A double-mutant strain; assay: microbe, parasite or virus in culture; format: cell-based; settings: for SI F227L + V106A: CC50/EC50; for EC50: Human immunodeficiency virus 1, MT4, read-out: EC50 F227L + V106A; for RF F227L + V106A: ratio of EC50 (resistant viral strain)/EC50 (wild-type viral strain)
[9] = test system: HIV-1 RES056 (K103N + Y181C) double-mutant strain; assay: microbe, parasite or virus in culture; format: cell-based; settings: for SI RES056: CC50/EC50; for EC50: Human immunodeficiency virus 1, MT4, read-out: EC50 RES056; for RF RES056: ratio of EC50 (resistant viral strain)/EC50 (wild-type viral strain)
[10] = biological target: WT HIV-1 RT (Human immunodeficiency virus type 1 group M subtype B, UniProt P03366); assay: Recombinant HIV-1 RT inhibitory assay; format: biochemical
[11] = Cytotoxicity in mock-infected MT-4 cell cultures, MTT method; settings: human, mock-infected MT-4 cells

Structure (SMILES)	EC50 [1]	SI IIIB [1]	EC50 [2]	SI L100I [3]	EC50 [3]	RF L100I [3]	SI K103N [4]	EC50 [4]	RF K103N [4]	EC50 [5]	RF Y181C [5]	EC50 [6]	RF Y188L [6]	EC50 [7]	RF E138K [7]	EC50 [8]	RF F227L + V106A [8]	EC50 [9]	RF RES056 [9]	CC50 at 5 days [11]	further results
Cc1cc(-c2ccc(F)cc2)cc(C)c1Oc1nc(NC2CCN(Cc3ccc(C(N)=O)cc3)CC2)nc2ccsc12 [Compound 24, 4-((4-((4-((4′-Fluoro-3,5-dimethyl-[1,1′-biphenyl]-4-yl)oxy)thieno[3,2-d]pyrimidin-2-yl)amino)piperidin-1-yl)methyl)benzamide]	12.8 ± 2.73 nM	532	≥ 5660 nM	111	61.1 ± 9.35 nM	4.8	578	11.7 ± 1.09 nM	0.9	36.1 ± 1.21 nM	2.8	51.4 ± 9.6 nM	4.0	34.8 ± 10.6 nM	2.7	56.6 ± 13.7 nM	4.4	575 ± 120 nM	44.9	6800 ± 3130 nM	SI ROD [2]: <1; SI Y181C [5]: 189; SI Y188L [6]: 132; SI E138K [7]: 195; SI F227L + V106A [8]: 120; SI RES056 [9]: 12; IC50 [10]: 171 ± 10 nM
Cc1ccnc2c1NC(=O)c1cccnc1N2C1CC1 [NVP, Nevirapine, reference compound]	186 ± 59 nM		> 9510 nM		1400 ± 828 nM	7.5		7820 ± 556 nM	42	> 9510 nM	NA (>51.1)	> 9510 nM	NA (>51)	115 ± 24.5 nM	0.6	> 9510 nM	NA (>51.1)	> 9510 nM	NA (>51.1)	> 9510 nM	
Cc1cc(-c2cccc(N(C)C)c2)cc(C)c1Oc1nc(NC2CCN(Cc3ccc(S(N)(=O)=O)cc3)CC2)nc2ccsc12 [Compound 31, 4-((4-((4-((3'-(Dimethylamino)-3,5-dimethyl-[1,1′-biphenyl]-4-yl)oxy)thieno[3,2-d]pyrimidin-2-yl)amino)piperidin-1-yl)methyl)benzenesulfonamide]	882 ± 323 nM	125	> 110000 nM	46	2400 ± 256 nM	2.7	161	685 ± 0.21 nM	0.8	2300 ± 413 nM	2.6	1990 ± 46.5 nM	2.3	979 ± 185 nM	1.1	2160 ± 298 nM	2.4	29600 nM	33.5	110000 ± 1460 nM	SI ROD [2]: <1; SI Y181C [5]: 48; SI Y188L [6]: 55; SI E138K [7]: 112; SI F227L + V106A [8]: 51; SI RES056 [9]: 4; IC50 [10]: 1680 ± 56 nM
Cc1cc(-c2ccoc2)cc(C)c1Oc1nc(NC2CCN(Cc3ccc(C(N)=O)cc3)CC2)nc2ccsc12 [Compound 14, 4-((4-((4-(4-(Furan-3-yl)-2,6-dimethylphenoxy)thieno[3,2-d]pyrimidin-2-yl)amino)piperidin-1-yl)methyl)benzamide]	57.5 ± 12.7 nM	275	3180 ± 832 nM	60	262 ± 75 nM	4.6	212	74.8 ± 2.93 nM	1.3	180 ± 33.4 nM	3.1	222 ± 30.5 nM	3.9	177 ± 2.93 nM	3.1	525 ± 21.1 nM	9.1	813 ± 177 nM	14.1	15800 ± 7040 nM	SI ROD [2]: 5; SI Y181C [5]: 88; SI Y188L [6]: 71; SI E138K [7]: 89; SI F227L + V106A [8]: 30; SI RES056 [9]: 19; IC50 [10]: 249 ± 1 nM
Cc1cc(-c2cccs2)cc(C)c1Oc1nc(NC2CCN(Cc3ccc(C(N)=O)cc3)CC2)nc2ccsc12 [Compound 16, 4-((4-((4-(2,6-Dimethyl-4-(thiophen-2-yl)phenoxy)thieno[3,2-d]pyrimidin-2-yl)amino)piperidin-1-yl)methyl)benzamide]	203 ± 51.5 nM	≥101	> 20500 nM	≥ 28	731 ± 274 nM	3.6	≥ 111	184 ± 90.2 nM	0.9	731 ± 198 nM	3.6	619 ± 3.59 nM	3.0	662 ± 58.4 nM	3.3	1090 ± 226 nM	5.4	10000 nM	49.2	≥ 20500 nM	SI Y181C [5]: ≥ 28; SI Y188L [6]: ≥ 33; SI E138K [7]: ≥ 31; SI F227L + V106A [8]: ≥ 19; SI RES056 [9]: ≥ 2; IC50 [10]: 595 ± 44 nM
Cc1cc(C#N)cc(C)c1Oc1nc(Nc2ccc(C#N)cc2)nc(N)c1Br [ETR, Etravirine, reference compound]	5.03 ± 1.68 nM		> 4590 nM		6.35 ± 1.77 nM	1.3		3.13 ± 0.42 nM	0.6	12.2 ± 2.63 nM	2.4	17.3 ± 5.53 nM	3.5	8.07 ± 2.52 nM	1.6	14.2 ± 5.14 nM	2.8	42.5 ± 15.1 nM	8.4	> 4590 nM	
Cc1cc(-c2ccsc2)cc(C)c1Oc1nc(NC2CCN(Cc3ccc(C(N)=O)cc3)CC2)nc2ccsc12 [Compound 18, 4-((4-((4-(2,6-Dimethyl-4-(thiophen-3-yl)phenoxy)thieno[3,2-d]pyrimidin-2-yl)amino)piperidin-1-yl)methyl)benzamide]	240 ± 94.3 nM	71	> 17000 nM	18	925 ± 286 nM	3.8	99	171 ± 56.9 nM	0.7	741 ± 154 nM	3.1	628 ± 49.6 nM	2.6	739 ± 318 nM	3.1	854 ± 186 nM	3.6	4520 ± 1450 nM	18.8	17000 ± 12900 nM	SI ROD [2]: <1; SI Y181C [5]: 23; SI Y188L [6]: 27; SI E138K [7]: 23; SI F227L + V106A [8]: 20; SI RES056 [9]: 4
O=C1Nc2ccc(Cl)cc2[C@@](C#CC2CC2)(C(F)(F)F)O1 [EFV, efavirenz, reference compound]	5.25 ± 1.98 nM		> 5330 nM		46.5 ± 9.11 nM			111 ± 35.4 nM		6.33 ± 1.06 nM		306 ± 53.9 nM				268 ± 48.7 nM				> 6330 nM	
